In patent publication EP4729516A1, “S[…] DERIVATIVE, INTERMEDIATE, PREPARATION METHOD THEREFOR AND USE THEREOF” (Jiangsu NHWA Pharmaceutical Co., Ltd, priority 2023, dated 2024):
Where a name gives a salt, the structure may show the parent alone. Read-outs that look alike come from different tables or passages of the source.

How the values were obtained:
α1A adrenoceptor = molecular target: T1, α1A adrenoceptor (Homo sapiens, UniProt P35348); test: Agonist screening mode IP-One assay, 293-α1A cells; type: cell-based
T1 construct: host or cells: 293
T1 sequence (P35348 1-466): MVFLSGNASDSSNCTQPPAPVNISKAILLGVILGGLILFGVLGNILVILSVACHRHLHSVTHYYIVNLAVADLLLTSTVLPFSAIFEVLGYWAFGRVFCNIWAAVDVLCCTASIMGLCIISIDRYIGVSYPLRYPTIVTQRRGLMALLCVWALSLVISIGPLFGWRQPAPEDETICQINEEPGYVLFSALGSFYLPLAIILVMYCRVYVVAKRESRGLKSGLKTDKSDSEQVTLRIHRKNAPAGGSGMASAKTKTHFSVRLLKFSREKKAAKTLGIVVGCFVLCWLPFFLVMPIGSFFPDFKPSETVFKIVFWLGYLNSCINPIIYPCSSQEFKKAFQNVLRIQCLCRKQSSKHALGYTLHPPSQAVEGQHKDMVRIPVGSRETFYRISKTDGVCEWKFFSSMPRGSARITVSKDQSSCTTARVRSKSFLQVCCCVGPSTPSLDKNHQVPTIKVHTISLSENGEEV
Experimental: (§1) The cells were centrifuged at 1000 rpm for 5 min, and the supernatant was discarded. 3 mL of PBS was added, and the mixture was gently pipetted to be mixed well. The cells were centrifuged again at 1000 rpm for 5 min, and the supernatant was discarded. […] After shaking, the assay plates were left to stand at room temperature for 60 min. • (8) Experimental readings: The plate was read on Envision, readings from the 665 nm and 615 nm channels were taken, and the ratio of 665 nm/615 nm readings was calculated.

α2C adrenoceptor = molecular target: T2, α2C adrenoceptor (Homo sapiens, UniProt P18825); test: Agonist screening mode IP-One assay, CHO-α2C/Gα15 cells; type: cell-based
T2 construct: host or cells: CHO
T2 sequence (P18825 1-462): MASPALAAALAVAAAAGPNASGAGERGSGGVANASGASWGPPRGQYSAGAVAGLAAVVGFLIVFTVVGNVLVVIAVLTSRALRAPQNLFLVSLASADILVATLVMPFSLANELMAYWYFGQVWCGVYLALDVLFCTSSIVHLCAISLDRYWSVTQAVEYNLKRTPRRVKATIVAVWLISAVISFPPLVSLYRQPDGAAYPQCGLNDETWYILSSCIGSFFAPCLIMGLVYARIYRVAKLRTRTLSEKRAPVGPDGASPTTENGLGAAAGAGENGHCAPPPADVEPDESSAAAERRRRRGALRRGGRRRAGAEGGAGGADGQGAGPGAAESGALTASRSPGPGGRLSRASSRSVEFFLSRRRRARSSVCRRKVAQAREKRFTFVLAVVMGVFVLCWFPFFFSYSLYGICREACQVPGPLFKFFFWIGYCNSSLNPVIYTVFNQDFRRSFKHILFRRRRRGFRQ
Experimental: as §1

α2B receptor = molecular target: T3, α2B receptor (Homo sapiens, UniProt P18089); test: Competitive receptor binding assay, α2B (3H-RX821002, CHO-K1-α2B membranes)
T3 construct: expressed in transfected cells; host or cells: CHO-K1
T3 sequence (P18089 1-450): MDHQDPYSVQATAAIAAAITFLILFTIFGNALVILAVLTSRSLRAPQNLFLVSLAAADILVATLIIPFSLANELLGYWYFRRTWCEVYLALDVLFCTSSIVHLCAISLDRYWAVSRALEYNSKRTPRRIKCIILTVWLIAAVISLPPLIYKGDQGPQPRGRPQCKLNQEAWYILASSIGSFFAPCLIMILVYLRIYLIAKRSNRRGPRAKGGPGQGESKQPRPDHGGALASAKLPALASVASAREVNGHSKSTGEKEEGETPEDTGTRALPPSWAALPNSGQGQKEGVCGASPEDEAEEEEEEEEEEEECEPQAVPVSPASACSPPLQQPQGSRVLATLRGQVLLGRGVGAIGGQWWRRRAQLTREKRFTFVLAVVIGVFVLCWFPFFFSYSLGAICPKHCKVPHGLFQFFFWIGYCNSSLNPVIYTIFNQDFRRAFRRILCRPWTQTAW
Experimental: (§2) Test sample (compound): The theoretical sample weighing amount was calculated according to the designed concentration and the required volume. Generally, the test sample was dissolved in DMSO to an initial preparation dose of 5.0 × 10^-3 M, and the solution was sequentially diluted with DMSO to 5.0 × 10^-4 M-5.0 × 10^-9 M; the diluted DMSO solution was diluted with Buffer to a working concentration of 5.0 × 10^-5 M-5.0 × 10^-11 M; and the final concentration of DMSO in the working solution was 1% (the final concentration of DMSO in the reaction system was 0.2%). The test sample was prepared and then stored at 4 °C. After the test was completed, the test sample was discarded.
(§3) CHO-K1-α1A, CHO-K1-α2A, CHO-K1-α2B, and CHO-K1-α2C cells were taken out of a refrigerator at -80 °C, thawed naturally, and centrifuged at 2000 g at 4 °C for 10 min. The supernatant was discarded, and the pellet was collected. […] The supernatant was discarded, and the buffer was added again. […] The supernatant was discarded, and the pellet was collected and stored at -80 °C.
(§4) Table 1. Experimental conditions for radioactive binding
(§5) Step 1: 50 µL of a vehicle (1% DMSO) was added to a total binding tube (TB), 50 µL of a non-labeled substance (with a final concentration of 1.0 × 10^-5 M) was added to a non-specific binding tube (NB), and 50 µL of a test compound was added to each test compound tube (CB).
(§6) Step 2: 100 µL of a buffer was added to each reaction tube.
(§7) Step 3: The prepared membrane was suspended in a buffer to give a membrane suspension with a corresponding concentration for later use.
(§8) Step 4: 50 µL of the corresponding radioligand was added to each reaction tube.
(§9) Step 5: 50 µL of the membrane suspension was added to each reaction tube.
(§10) Step 6: Each reaction tube was incubated according to the incubation conditions. After the reaction was completed, the binding ligands were rapidly filtered under reduced pressure. The UniFilter GF/C plate was saturated with a 0.5% PEI solution 1 h in advance, fully washed with an ice-cold Tris-HCl buffer, filtered under vacuum, then placed into a thermostatic dryer, and dried for 30 min. The filter plate was taken out, and a MICROSCINT PS scintillation solution was added at 40 µL/well.
(§11) Step 7: The scintillation vial was put into a liquid scintillation counter for counting.
(§12) Based on the effect values of the compound samples at different concentration test points, the GraphPad Prism software was used to fit the action curves of the compound samples to the receptors, and the Ki values were calculated.

α2C receptor = molecular target: T4, α2C receptor (Homo sapiens, UniProt P18825); test: Competitive receptor binding assay, α2C (3H-RX821002, CHO-K1-α2C membranes)
T4 construct: expressed in transfected cells; host or cells: CHO-K1
T4 sequence (P18825 1-462): T2 sequence (P18825 1-462)
Experimental: as §2, §3, §4, §5, §6, §7, §8, §9, §10, §11, §12

α2B adrenoceptor = molecular target: T5, α2B adrenoceptor (Homo sapiens, UniProt P18089); test: Agonist screening mode IP-One assay, CHO-α2B/Gα15 cells; type: cell-based
T5 construct: host or cells: CHO
T5 sequence (P18089 1-450): T3 sequence (P18089 1-450)
Experimental: as §1

α1A receptor = molecular target: T6, α1A receptor (Homo sapiens, UniProt P35348); test: Competitive receptor binding assay, α1A (3H-Prazosin, CHO-K1-α1A membranes)
T6 construct: expressed in transfected cells; host or cells: CHO-K1
T6 sequence (P35348 1-466): T1 sequence (P35348 1-466)
Experimental: as §2, §3, §4, §5, §6, §7, §8, §9, §10, §11, §12

[1] = Ki, CHO-K1-α2B membranes, 3H-RX821002, read-out: Binding α2B
[2] = Ki, CHO-K1-α2C membranes, 3H-RX821002, read-out: Binding α2C
[3] = Ki, CHO-K1-α1A membranes, 3H-Prazosin, read-out: Binding α1A

SMILES | EC50 (α1A adrenoceptor) | EC50 (α2C adrenoceptor) | Ki (α2B receptor; [1]) | Ki (α2C receptor; [2]) | EC50 (α2B adrenoceptor) | Ki (α1A receptor; [3]) | Ki (α2B receptor) | Ki (α2C receptor) | Ki (α1A receptor)
c1cc2c(c(Cc3c[nH]cn3)c1)SCCC2 [Compound 1, 4-[1-(Thiochroman-8-yl)methyl]-1H-imidazole] | 3.16 nM | 15.3 nM | 59.1 nM | 29.3 nM | 4.09 nM | 67.9 nM | – | – | –
CC(c1c[nH]cn1)c1cccc2c1SCCC2 (stereo not drawn) [Compound 2, 4-(1-[Thiochroman-8-yl)ethyl]-1H-imidazole] | 5.32 nM | 18.4 nM | 11.7 nM | 13.8 nM | 3.03 nM | 91.2 nM | – | – | –
CC(c1c[nH]cn1)c1cccc2c1CC2 (stereo not drawn) [Compound 3, 4-(1-(Bicyclo[4.2.0]octa-1(6),2,4-trien-2-yl)ethyl)-1H-imidazole] | 57 nM | 191 nM | – | – | 5.51 nM | – | 62.3 nM | 26.1 nM | 1130 nM
CC(c1c[nH]cn1)c1cccc2c1CCCC2 (stereo not drawn) [Compound 4, 4-(1-(5,6,7,8-Tetrahydronaphthalen-1-yl)ethyl)-1H-imidazole] | 25.1 nM | 278 nM | – | – | 54.4 nM | – | 64.6 nM | 46.1 nM | 2050 nM
CC(c1c[nH]cn1)c1cccc2c1C=CC2 (stereo not drawn) [Compound 8, 4-[1-(1H-Inden-4-yl)ethyl]-1H-imidazole] | 21.8 nM | 9.89 nM | – | – | 17.7 nM | – | 37.7 nM | 18.9 nM | 1130 nM
CC(c1c[nH]cn1)c1cccc2c1OCC2 (stereo not drawn) [Compound 10, 4-[1-(2,3-Dihydrobenzofuran-7-yl)ethyl]-1H-imidazole] | 24.1 nM | 3.99 nM | – | – | 1.66 nM | – | 6.05 nM | 6.44 nM | 766 nM
C[C@H](c1c[nH]cn1)c1cc(F)cc2c1C=CC2 [Compound 11-b, 4-[(1S)-1-(6-fluoro-1H-inden-4-yl)ethyl]-1H-imidazole] | 36.8 nM | 0.87 nM | – | – | 2.55 nM | – | 54.8 nM | 23.8 nM | 671 nM
CC(c1c[nH]cn1)c1cccc2c1C=CC2(C)C (stereo not drawn) [Compound 17, 4-[1-(1,1-Dimethyl-1H-inden-4-yl)ethyl]-1H-imidazole] | 104 nM | 134 nM | – | – | 6.59 nM | – | 244 nM | 594 nM | > 10000 nM
C[C@H](c1c[nH]cn1)c1cccc2c1CCC2 [Compound 31-b, (S)-4-[1-(2,3-dihydro-1H-inden-4-yl)ethyl]-1H-imidazole] | 7.94 nM | 1.78 nM | – | – | 1.08 nM | – | 32.9 nM | 10.8 nM | 424 nM
CC1Cc2cccc(C(C)c3c[nH]cn3)c2O1 (stereo not drawn) [Compound 32, 4-[1-(2-Methyl-2,3-dihydrobenzofuran-7-yl)ethyl]-1H-imidazole] | 4.73 nM | 8.13 nM | – | – | 2.23 nM | – | 28.1 nM | 26.1 nM | 137 nM
C[C@H](c1c[nH]cn1)c1cc(F)cc2c1C(=O)CC2 [Compound 38-b, (S)-7-(1-(1H-imidazol-4-yl)ethyl)-5-fluoro-2,3-dihydro-1H-inden-1-one] | 9.75 nM | 2.21 nM | 49.1 nM | 36.4 nM | 3.84 nM | 3160 nM | – | – | –
Cc1cccc([C@H](C)c2cnc[nH]2)c1C [Dexmedetomidine hydrochloride, reference compound] | 9.55 nM | 2.05 nM | 3.66 nM | 7.34 nM | 0.96 nM | 593 nM | – | – | –
